Data on 18 compounds can be found in ChEMBL document CHEMBL1201862, “PubChem BioAssay data set” (2004).

One assay deals with Beta-galactosidase (Escherichia coli, UniProt Q8VNN2). The experiment in a line: beta-galactosidase enzyme inhibitors and activators, dose response, artefact control for CCR6 antagonist project, biochemical, E. coli enzyme, set 3 (AID 504712). The assay is classed as functional.
The subject of another assay is H9c2. The assay can be described thus: cells. The assay is classed as functional, cell-based. The conditions noted are these: Rattus norvegicus, H9c2, Myocardium.
The target of another assay is Prothrombin (Homo sapiens, UniProt P00734). The experiment in a line: Thrombin 1536 HTS Dose Response Confirmation. [Related pubchem assays: 1046 (Thrombin 1536 HTS; hits were confirmed in this assay)]. The assay is classed as functional.
A short description of assay [1]: HEp-2 cell cytotoxicity, dose response, cytotoxicity control for RSV inhibitor project, HTS (AID 2410). It is filed as functional. The conditions noted are these: human respiratory syncytial virus.
For assay [2], the target named is T1, Ubiquitin-conjugating enzyme E2 N (Homo sapiens, UniProt P61088).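 Note: Dose-response confirmation in a TR-FRET assay detecting UBC13-driven polyubiquitin chain formation, inhibition measured.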
T1 sequence (P61088 whole entry): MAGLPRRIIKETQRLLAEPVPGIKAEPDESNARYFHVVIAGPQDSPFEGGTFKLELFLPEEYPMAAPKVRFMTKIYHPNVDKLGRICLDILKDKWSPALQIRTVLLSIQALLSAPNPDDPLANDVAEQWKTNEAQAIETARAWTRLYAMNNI
The assay is classed as functional.

Assay [3] has as its target T2, Heat shock factor protein 1 (Mus musculus, UniProt P38532).
T2 sequence (P38532 whole entry): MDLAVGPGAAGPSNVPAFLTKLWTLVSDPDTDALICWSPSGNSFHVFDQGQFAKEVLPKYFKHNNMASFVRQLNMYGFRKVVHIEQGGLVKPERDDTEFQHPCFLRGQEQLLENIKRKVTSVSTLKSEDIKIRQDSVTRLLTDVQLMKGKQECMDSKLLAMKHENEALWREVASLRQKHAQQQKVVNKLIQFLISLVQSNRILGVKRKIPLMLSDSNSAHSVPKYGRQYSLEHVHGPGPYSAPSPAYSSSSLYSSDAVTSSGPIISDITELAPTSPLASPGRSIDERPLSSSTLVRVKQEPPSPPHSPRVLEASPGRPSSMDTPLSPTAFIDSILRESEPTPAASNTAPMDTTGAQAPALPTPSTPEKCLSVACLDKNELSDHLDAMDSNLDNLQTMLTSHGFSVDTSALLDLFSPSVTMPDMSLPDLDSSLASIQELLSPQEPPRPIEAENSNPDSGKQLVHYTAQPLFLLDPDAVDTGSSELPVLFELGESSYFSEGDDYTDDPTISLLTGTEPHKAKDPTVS
The assay can be described thus: HSF1 potentiators in luciferase reporter cells, confirmation, cell-based, NIH3T3, luminescence, dose retest (AID 435004).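 Note: stress induced by proteasome inhibitor MG132 added 30 min after compound; luciferase reporter driven by HSF1 response element in NIH3T3 cells; actives raise luminescence as potentiators of the MG132 stress response.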 It is filed as functional.

Assay [4] is described as follows: THP-1 cell cytotoxicity, dose response, cytotoxicity control for Vif-APOBEC3G degradation inhibitor project, THP-1 cells (AID 1117359). The assay is classed as functional. The conditions noted are these: Human immunodeficiency virus 1, THP-1.
Assay [5] is described as follows: cytotoxicity in KRAS-transformed pancreatic duct cells, primary screen, cell-based, fluorescence, HTS (AID 431).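 Note: cell line used: HPDE-C7K.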 It is filed as functional. The conditions noted are these: Homo sapiens.
Assay [6] can be described thus: cytotoxicity in HPDE-C7 cells, cell-based, fluorescence, HTS (AID 430). The conditions noted are these: Homo sapiens. It is filed as functional.
The target in another assay is T3, Bcl-2-related protein A1 (Mus musculus, UniProt Q07440).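 Note: confirmatory dose–response counterscreen on Bfl-1, used to check hits from a UBC13 polyubiquitin inhibitor campaign.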
T3 sequence (Q07440 whole entry): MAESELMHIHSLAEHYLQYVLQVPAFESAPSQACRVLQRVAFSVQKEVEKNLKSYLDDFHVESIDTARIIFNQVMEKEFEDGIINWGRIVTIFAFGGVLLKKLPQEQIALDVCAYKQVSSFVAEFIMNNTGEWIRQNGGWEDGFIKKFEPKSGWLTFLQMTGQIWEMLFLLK
The assay is classed as functional.

Another assay relates to Vero. The experiment in a line: cells. The conditions noted are these: Chlorocebus sabaeus. It is filed as functional, cell-based.
A short description of assay [7]: Luminescence Cell-Based Dose Retest to Confirm Inhibitors of Cancer Stem Cells. [Related pubchem assays (depositor defined):AID2717, AID2721]. It is filed as functional. The conditions noted are these: Homo sapiens.
The target of assay [8] is T4, Microphthalmia-associated transcription factor (Homo sapiens, UniProt O75030).
T4 sequence (O75030 whole entry): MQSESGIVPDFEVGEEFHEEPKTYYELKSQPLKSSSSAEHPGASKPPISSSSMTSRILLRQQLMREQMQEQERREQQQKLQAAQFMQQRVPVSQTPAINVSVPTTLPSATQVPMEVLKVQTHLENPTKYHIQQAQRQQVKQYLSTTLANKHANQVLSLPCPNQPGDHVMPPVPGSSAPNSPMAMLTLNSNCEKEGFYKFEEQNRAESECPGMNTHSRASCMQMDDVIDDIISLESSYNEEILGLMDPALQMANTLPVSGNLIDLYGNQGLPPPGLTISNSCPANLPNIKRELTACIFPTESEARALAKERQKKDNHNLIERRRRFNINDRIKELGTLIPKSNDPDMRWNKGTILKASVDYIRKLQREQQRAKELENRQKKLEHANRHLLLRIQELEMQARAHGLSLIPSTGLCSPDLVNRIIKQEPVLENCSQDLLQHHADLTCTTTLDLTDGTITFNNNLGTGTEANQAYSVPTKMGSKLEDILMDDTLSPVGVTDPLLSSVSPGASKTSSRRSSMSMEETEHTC
The assay can be described thus: TRPM1 promoter luciferase signal decrease, dose response, MITF inhibitor project, cell-based, SK-MEL-5, cherry-picked, set 3 (AID 493073).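 Note: SK-MEL-5 melanoma cells with luciferase driven by the MITF target TRPM1 promoter.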 It is filed as functional.

The nature of assay [9]: cytotoxicity toward NIH3T3 fibroblasts, dose response, counter-screen, cell-based, ATP luminescence, mouse fibroblasts (AID 2010).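 Note: cells exposed to compound for about 90 hours before reading.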 The assay is classed as functional. Background: A counterscreen serves to expose hits that act by an unwanted route or on another target.
In the next assay the target is Large T antigen (Simian virus 40, UniProt P03070). It is filed as functional, Betapolyomavirus macacae.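 Note: Confirmatory-stage PubChem screen for compounds that inhibit SV40 T antigen.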
Sequence of Large T antigen (P03070 whole entry): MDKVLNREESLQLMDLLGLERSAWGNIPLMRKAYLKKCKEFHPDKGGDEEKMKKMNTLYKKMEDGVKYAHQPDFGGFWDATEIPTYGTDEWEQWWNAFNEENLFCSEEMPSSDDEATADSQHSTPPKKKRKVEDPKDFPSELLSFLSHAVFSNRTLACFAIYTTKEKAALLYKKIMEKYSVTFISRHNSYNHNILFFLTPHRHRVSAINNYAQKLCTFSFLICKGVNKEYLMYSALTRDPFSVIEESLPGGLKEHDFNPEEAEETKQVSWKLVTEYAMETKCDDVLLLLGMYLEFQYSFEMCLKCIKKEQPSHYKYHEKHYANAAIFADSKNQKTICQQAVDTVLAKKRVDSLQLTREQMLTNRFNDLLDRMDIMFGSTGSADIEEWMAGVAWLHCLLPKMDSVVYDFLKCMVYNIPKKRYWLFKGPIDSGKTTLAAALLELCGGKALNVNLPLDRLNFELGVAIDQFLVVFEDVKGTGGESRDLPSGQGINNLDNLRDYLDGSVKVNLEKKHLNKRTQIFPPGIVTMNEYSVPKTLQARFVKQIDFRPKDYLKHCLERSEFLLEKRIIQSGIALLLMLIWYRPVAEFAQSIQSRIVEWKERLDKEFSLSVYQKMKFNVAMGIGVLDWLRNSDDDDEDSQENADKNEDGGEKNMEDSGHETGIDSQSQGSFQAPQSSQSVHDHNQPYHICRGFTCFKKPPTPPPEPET
The nature of assay [10]: inhibitors of intracellular T. cruzi replication, confirmation, NIH3T3 host cells, beta-gal luminescence (AID 2044).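 Note: intracellular parasites grown in NIH/3T3 mouse fibroblasts as host cells; luminescent beta-galactosidase reporter signal from transgenic T. cruzi replicating inside host cells; inhibitors lower the luminescence signal.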 It is filed as functional, cell-based.
The next assay has as its target Paired box protein Pax-8 (Homo sapiens, UniProt Q06710). The experiment in a line: inhibitors of PAX8-driven TPO luciferase reporter, dose response, RMG-I cells, cherry-pick (AID 687027).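 Note: luciferase reporter driven by Pax8 target thyroperoxidase promoter measured by SteadyGlo luminescence.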 The assay is classed as functional, cell-based. Background: In a reporter assay the amount or activity of a reporter protein is the signal.
A short description of assay [11]: IGROV1 ovarian cancer cell cytotoxicity, dose response, PAX8 inhibitor project, plate reader, dry powder samples (AID 743043). The assay is classed as functional, cell-based. The conditions noted are these: IGROV-1.
Assay [12] is described as follows: cytotoxicity in OVCAR8 ovarian cancer cells, dose response, PAX8 project, cell-based, plate reader, dry powder samples (AID 743197). The assay is classed as functional. The conditions noted are these: OVCAR-8.
Assay [13] is described as follows: NIH:OVCAR-3 ovarian cancer cell cytotoxicity, dose response, PAX8 inhibitor project, plate reader, dry powder samples (AID 743044). It is filed as functional, cell-based.
A further assay addresses T5, Estrogen receptor (Homo sapiens, UniProt P03372).
T5 sequence (P03372 whole entry): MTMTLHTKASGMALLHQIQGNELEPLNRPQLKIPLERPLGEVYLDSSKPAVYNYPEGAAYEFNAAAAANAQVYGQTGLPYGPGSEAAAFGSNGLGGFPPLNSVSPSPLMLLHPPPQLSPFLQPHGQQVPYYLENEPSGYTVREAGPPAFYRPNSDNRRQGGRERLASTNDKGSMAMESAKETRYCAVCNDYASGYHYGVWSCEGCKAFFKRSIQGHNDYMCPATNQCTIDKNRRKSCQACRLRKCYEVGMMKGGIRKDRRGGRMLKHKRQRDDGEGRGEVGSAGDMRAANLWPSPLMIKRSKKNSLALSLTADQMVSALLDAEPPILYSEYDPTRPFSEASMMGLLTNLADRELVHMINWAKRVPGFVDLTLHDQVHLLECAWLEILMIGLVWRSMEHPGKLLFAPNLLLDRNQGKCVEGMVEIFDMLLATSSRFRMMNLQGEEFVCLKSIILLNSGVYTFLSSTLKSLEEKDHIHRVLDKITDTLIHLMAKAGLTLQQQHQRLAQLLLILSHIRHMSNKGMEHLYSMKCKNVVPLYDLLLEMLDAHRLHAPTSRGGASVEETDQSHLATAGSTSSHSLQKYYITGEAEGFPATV

For a further assay, the system named is HEK293. The assay can be described thus: inhibitors of LMP1-driven NF-kB reporter, dose response, cell-based, HEK293, luciferase, cherry-pick (AID 588343). It is filed as functional. The conditions noted are these: Homo sapiens.

Structures are written as SMILES. The source made the active and inactive calls. A value given as a limit tells only on which side of the number the result lay.

Sequence of Paired box protein Pax-8 (Q06710 whole entry): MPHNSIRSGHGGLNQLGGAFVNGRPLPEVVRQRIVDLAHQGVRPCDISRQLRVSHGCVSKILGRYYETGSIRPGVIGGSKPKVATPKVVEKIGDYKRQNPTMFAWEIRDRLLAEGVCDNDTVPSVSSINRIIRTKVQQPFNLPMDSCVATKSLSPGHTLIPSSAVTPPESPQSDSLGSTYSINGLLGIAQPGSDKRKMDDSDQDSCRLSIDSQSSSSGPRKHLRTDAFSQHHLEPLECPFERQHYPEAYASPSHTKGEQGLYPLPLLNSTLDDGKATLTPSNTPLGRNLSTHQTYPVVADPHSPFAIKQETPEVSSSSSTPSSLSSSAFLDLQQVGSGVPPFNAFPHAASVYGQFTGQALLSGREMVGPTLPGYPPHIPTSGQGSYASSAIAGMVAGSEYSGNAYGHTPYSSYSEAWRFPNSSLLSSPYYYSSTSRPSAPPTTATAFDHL
Sequence of Beta-galactosidase (Q8VNN2 whole entry): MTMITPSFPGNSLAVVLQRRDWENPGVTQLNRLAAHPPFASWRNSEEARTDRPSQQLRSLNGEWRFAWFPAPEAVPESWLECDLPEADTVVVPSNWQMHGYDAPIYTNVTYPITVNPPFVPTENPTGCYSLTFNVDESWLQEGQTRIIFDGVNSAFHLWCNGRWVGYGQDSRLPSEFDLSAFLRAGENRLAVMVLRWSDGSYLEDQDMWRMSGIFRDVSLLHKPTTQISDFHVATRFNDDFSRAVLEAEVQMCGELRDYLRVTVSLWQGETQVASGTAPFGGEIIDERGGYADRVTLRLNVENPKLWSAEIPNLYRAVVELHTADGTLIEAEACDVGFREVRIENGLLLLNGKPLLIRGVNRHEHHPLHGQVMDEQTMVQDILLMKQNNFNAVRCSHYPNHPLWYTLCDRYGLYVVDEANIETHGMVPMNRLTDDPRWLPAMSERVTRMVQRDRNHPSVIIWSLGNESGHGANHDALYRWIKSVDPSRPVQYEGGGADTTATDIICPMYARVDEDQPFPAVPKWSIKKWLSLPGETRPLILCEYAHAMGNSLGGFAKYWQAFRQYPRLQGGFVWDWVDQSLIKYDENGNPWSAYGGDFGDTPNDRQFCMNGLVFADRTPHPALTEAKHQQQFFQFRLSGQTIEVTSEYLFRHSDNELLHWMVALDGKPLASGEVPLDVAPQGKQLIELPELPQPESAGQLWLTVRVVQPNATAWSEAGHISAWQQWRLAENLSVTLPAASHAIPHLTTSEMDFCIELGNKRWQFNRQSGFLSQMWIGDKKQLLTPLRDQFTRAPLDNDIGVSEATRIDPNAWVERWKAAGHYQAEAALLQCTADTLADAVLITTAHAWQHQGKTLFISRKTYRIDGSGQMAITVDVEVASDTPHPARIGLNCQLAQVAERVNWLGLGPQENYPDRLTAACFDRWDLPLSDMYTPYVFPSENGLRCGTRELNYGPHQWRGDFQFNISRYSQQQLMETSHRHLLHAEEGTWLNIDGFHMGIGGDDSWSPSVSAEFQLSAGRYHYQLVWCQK

Broadly, the IC50 is the concentration at which inhibition is half-maximal. Consider `COc1cccc(-c2nnc(NC(=O)c3ccc(Cl)s3)o2)c1`, for which the IC50 is > 66.6 µM (inactive) at Beta-galactosidase and > 79 µM (inactive) in the assay on H9c2.

`CCN(CC)CCn1c(NC(=O)c2ccccc2O)nc2ccccc21`: the IC50 at Beta-galactosidase was > 66.6 µM (inactive).

In the case of `CCCCOC(=O)n1ccc(C(=O)Nc2ccccc2OC)n1`, at Prothrombin, the IC50 is 13.8 µM (active).

The term CC50 denotes the concentration at which the toxic effect on the cells reaches its halfway point. `COc1ccccc1NC(=O)Nc1nc(C(C)(C)C)cs1`: the IC50 in the assay “cells” was 30.3 µM (active); in [2] it was > 20 µM (inactive). Also, the CC50 in [1] is > 50 µM (active).

For the compound `OC1(c2ccc(F)cc2)CCN(Cc2nnnn2Cc2cccs2)CC1`, at Prothrombin, the IC50 is > 50 µM (not active).

The term EC50 denotes the midpoint of the concentration-response curve. For `CCOC(=O)c1sc2nc(CC(=O)OC)nc(NCc3ccco3)c2c1C`, in [3], the EC50 was 63.7 µM (active). Besides, the CC50 in assay [4] is 32.7 µM (active).

On to `COc1ccc(C(=O)CSc2cc(C)nc3nc(C)nn23)cc1OC`, for which the EC50 in assay [5] and in assay [6] was > 20 µM (not active) throughout.

As to `O=C(CSc1nc2ccsc2c(=O)n1Cc1ccc(C(=O)O)cc1)NCC1CCCO1` (configuration not stated), the results for the IC50 (on Bcl-2-related protein A1; in assay [2]) were > 20 µM (inactive) and 17.5 µM (active), respectively.

Regarding `CN1c2ccccc2C(C)(C)C12CC(c1ccc(S(=O)(=O)N3CCCCC3)cc1)=NO2` (configuration not stated), the IC50 was 12 µM (active) in the assay “cells” and 4.14 µM (active) in the assay with Vero. In assay [1], the CC50 was 6.73 µM (active).

On to `c1csc(-c2nc3c4ccccc4c4ccccc4c3[nH]2)c1`, for which the IC50 in “cells” is 5.21 µM (active).

One may read the AC50 as the midpoint of the concentration-response curve, whichever way the signal moves. As for `CCOC(=O)c1c(C)oc2c(F)c(F)c(F)c(F)c2c1=O`, the AC50 in assay [7] is 1.26 µM (active); in assay [8], 2.32 µM (active). Further, the EC50 is 1.49 µM (active) in [5] and 1.55 µM (active) in assay [6].

With `CC(=O)CC1OC(O)=C(Br)/C1=N/Cc1ccccc1` (configuration not stated), the EC50 is 9.82 µM (active) in [5], 4.68 µM (active) in assay [9], 0.808 µM (active) in [10] and 7.33 µM (active) in [6]. The IC50 on Large T antigen was 41.6 µM (active).

On to `C[C@H](CO)N1C[C@H](C)[C@@H](CN(C)Cc2ccc(Oc3ccccc3)cc2)Oc2ccc(NS(=O)(=O)c3ccc(Cl)cc3)cc2CC1=O`, for which the AC50 is 7.43 µM (active) at Paired box protein Pax-8, 67.8 µM (active) in [11], 62.6 µM (active) in assay [12] and 68.7 µM (active) in assay [13].

As for `C[C@@H]1CCCCO[C@@H](CN(C)Cc2ccc(C(F)(F)F)cc2)[C@H](C)CN([C@H](C)CO)C(=O)c2cc(NS(=O)(=O)c3ccc(F)cc3)ccc2O1`, the AC50 on Paired box protein Pax-8 is 5.08 µM (active); in [11] it was 40 µM (active); in [12], 40.3 µM (active); in assay [13] it was 25.2 µM (active).

With `O=C(C[C@H]1CC[C@@H]2[C@H](COC[C@H](O)CN2S(=O)(=O)c2cccc(F)c2)O1)Nc1ccc(-c2ccccc2)cc1`, the half-maximal activity concentration (AC50) on Paired box protein Pax-8 was 17.2 µM (active); in assay [11], 59.4 µM (active); in [12] it was 42.6 µM (active).

For the compound `CN(C)c1nc(N/N=C\c2ccc(Cl)c([N+](=O)[O-])c2)nc(Nc2ccc(F)cc2)n1`, the IC50 at Estrogen receptor was > 50 µM (not active).

As for `Nc1nc(-c2ccco2)nn1C(=O)c1ccccc1`, the IC50 at Prothrombin is 0.926 µM (active).

As to `CSc1nc2cc3c(cc2n1C(=O)c1ccc(C)cc1)OCCO3`, the AC50 in the assay with HEK293 is > 350 µM (inactive). The half-maximal inhibitory concentration (IC50) at Prothrombin is 0.556 µM (active).
